Results published in patent US20240034742A1, “DOSING REGIMENS FOR CYCLIN-DEPENDENT KINASE 7 (CDK7) INHIBITORS” (Syros Pharmaceuticals, Inc., priority 2020, published 2024).

How the values were obtained:
[1] = test system: PDX models with oncogenic alterations in the RB pathway and MAPK pathway; assay: Anti-tumor activity in PDX models with RB or MAPK pathway alterations; type: in vivo; details: well-tolerated doses; models from SCLC, TNBC, HGSOC, CRC, PDAC, NSCLC patients
[2] = test system: 12 PDX models representing SCLC, TNBC and HGSOC; assay: Tumor growth inhibition in TNBC, HGSOC and SCLC PDX models
Experimental: (§1) In the TNBC, SCLC, and HGSOC models, tumor volume was measured during the treatment period and for an additional 21 days after treatment ceased. […] The same calculations were used for end of study (day 42).
Dosing was initiated when tumors were 150-300 mm^3. […] TGI was calculated on the last day of dosing using the formula: TGI=(Vc1−Vt1)/(Vc0−Vt0), where Vc1 and Vt1 are the mean volumes of control and treated groups at the time of tumor extraction, while Vc0 and Vt0 are the same groups at the start of dosing.

[3] = test system: ST390 (modeling pancreatic ductal adenocarcinoma (PDAC)); assay: Tumor growth inhibition in PDAC PDX model ST390; details: 6 mg/kg QD PO, over the time examined (~28 days)
Experimental: as §1

[4] = test system: patients with advanced solid tumors; assay: Phase 1, first-in-human dose escalation study
Experimental: We focused on safety, tolerability, PK, and PD (as assessed by a PD gene expression marker, POLR2A mRNA) in a 28-day single agent continuous daily dosing regimen and a 3-week-on, I-week-off combination regimen with fulvestrant.
Safety and tolerability, including cycle-1 dose-limiting toxicities (DLTs) were evaluated. Dose-limiting toxicities were graded using the National Cancer Institute Common Toxicity Criteria for Adverse Events (NCI-CTCAE) version 5.0. Serial plasma PK and PD in peripheral blood mononuclear cells (PBMCs) were obtained on days 1 and 15 in cycle 1. […] Tumor responses were assessed per RECIST version 1.1.

[5] = test system: HCC70 cell line; assay: Inhibition of cell proliferation (CyQUANT Direct Cell Proliferation Assay); type: cell-based; details: Homo sapiens, 72-hour proliferation assay
Experimental: The HCC70 cell line was derived from human TNBC, and we tested representative compounds of the invention, at different concentrations (from […]; 0.5 log serial dilutions), for their ability to inhibit the proliferation of those cells. More specifically, we tested the same compounds tested above for CDK7 selectivity (the structures of which are shown in FIG. 1), and we used the known CDK inhibitors dinaciclib (or N-((1S,3R)-3-((5-chloro-4-(1H-indol-3-yl) pyrimidin-2-yl)amino)cyclohexyl)-5-((E)-4-(dimethylamino)but-2-enamido)picolinamide) and triptolide as positive controls. The cells were grown in ATCC-formulated RPMI-1640 medium (ATCC 30-2001) supplemented with 10% fetal bovine serum (FBS), at 37° C. in a humidified chamber in the presence of 5% CO2. We conducted proliferation assays over a 72-hour time period using a CyQUANT® Direct Cell Proliferation Assay (Life Technologies, Chicago, IL USA) according to the manufacturer's directions and utilizing the reagents supplied with the kit.

[6] = test system: palbociclib and fulvestrant double-resistant ER+BC PDX model (ST941); assay: Tumor growth inhibition in palbociclib and fulvestrant double-resistant ER+BC PDX model ST941; type: in vivo, mice; details: last day of 28 days dosing, Compound 101 6 mg/kg QD PO, fulvestrant 2.5 mg/kg weekly SC, palbociclib 50 mpk QD PO
Experimental: Tumor growth inhibition was evaluated in estrogen receptor-positive breast cancer (ER-BC) PDX models selected in vivo for resistance to the CDK4/6 inhibitor palbociclib (ST1799, […]) or resistance to both palbociclib and fulvestrant (ST941, n=1), Dosing was initiated when tumors were 100-200 mm^3.

[7] = single agent and in combination with fulvestrant

SMILES: CC1(C)CC[C@H](Nc2ncc(C(F)(F)F)c(-c3c[nH]c4c(P(C)(C)=O)c(C#N)ccc34)n2)CN1 [Compound 101, (S)-7-(dimethylphosphoryl)-3-(2-((6,6-dimethylpiperidin-3-yl)amino)-5-(trifluoromethyl)pyrimidin-4-yl)-1H-indole-6-carbonitrile]
- anti-tumor activity [1]: robust anti-tumor activity
- TGI in TNBC (BR5010), SCLC (LU5178) and HGSOC (OV15398) PDX models ([2]; 10 mg/kg QD or 5 mg/kg BID (TNBC), 3 mg/kg BID (SCLC, HGSOC), PO, 21 days, plus 21 days observation): deep and sustained TGI, including regressions
- TGI at the end of the 21-day dosing period in all models ([2]; 12 PDX models, 6 or 10 mg/kg QD or 3 or 5 mg/kg BID PO): at least 50%
- TGI in the subset of models (58%, 7/12) with deep and sustained responses ([2]; TGI or regression, no tumor regrowth for 21 days after treatment discontinuation): > 95%
- tolerability: body weight ([2]; all once-daily doses tested, tumor-bearing mice): no evident body weight loss
- MTD ([2]; tumor-bearing mice): above 10 mg/kg once daily
- Tumor growth inhibition (TGI) [3]: 100%
- pharmacodynamics: POLR2A mRNA in PBMCs and CDK7 occupancy ([4]; 3 mg daily): induced POLR2A elevations associated with regressions in preclinical models and target levels of CDK7 occupancy in patients
- dose-limiting events ([4]; cohort receiving 4 mg doses, continuous daily (Grade 3 fatigue; abdominal pain)): two
- dose-limiting events ([4]; cohort receiving 5 mg doses, continuous daily (Grade 3 nausea; thrombocytopenia)): two
- patients who developed an SAE (all causality) ([4]; four of 13 patients): 31%
- grade of the majority of reported adverse events ([4]; in vivo): low grade
- accumulation with repeated dosing [4, 7]: minimal accumulation
- dose proportionality of PK [4, 7]: approximately dose proportional PK
- interpatient variability of PK [4, 7]: moderate to high interpatient variability
- steady state half-life [4, 7]: compatible with once daily dosing
- best response (RECIST 1.1) ([4]; single agent, 3 mg daily, two patients (HR+ breast cancer, colorectal cancer)): stable disease
- best response (RECIST 1.1) ([4]; single agent, 5 mg daily, one patient, esophageal cancer): stable disease
- MTD ([4]; single agent, oral, continuous daily dosing cohorts): 3 mg
- response (RECIST 1.1) ([4]; single agent, two patients with ovarian cancer, 1 mg and 3 mg daily): progressive disease
- EC50 [5]: 3.6 nM

SMILES: C[C@]12CC[C@@H]3c4ccc(O)cc4C[C@@H](CCCCCCCCC[S+]([O-])CCCC(F)(F)C(F)(F)F)[C@H]3[C@@H]1CC[C@@H]2O (some centres unmarked) [fulvestrant]
- Tumor growth inhibition (TGI) [6]: no activity

SMILES: CC(=O)c1c(C)c2cnc(Nc3ccc(N4CCNCC4)cn3)nc2n(C2CCCC2)c1=O [palbociclib]
- Tumor growth inhibition (TGI) [6]: no activity
